Test results from US20240270762A1, “PENICILLIN-BINDING PROTEIN INHIBITORS” (priority 2021, published 2024).
Values after ≈ are worked out from the molar mass of the structure shown.

Columns and labels:
[1] = test system: N. gonorrhoeae WHO X; assay: Liquid broth MIC in Fastidious broth; settings: Neisseria gonorrhoeae, read-out: Minimum Inhibitory Concentration (MIC), N. gonorrhoeae WHO X
[2] = test system: N. gonorrhoeae WHO M; assay: Liquid broth MIC in Fastidious broth; settings: Neisseria gonorrhoeae, read-out: Minimum Inhibitory Concentration (MIC), N. gonorrhoeae WHO M
[3] = test system: N. gonorrhoeae WHO G; assay: Liquid broth MIC in Fastidious broth; settings: Neisseria gonorrhoeae, read-out: Minimum Inhibitory Concentration (MIC), N. gonorrhoeae WHO G
[4] = test system: P. aeruginosa ATCC 35151; assay: microbe, parasite or virus in culture; format: cell-based; settings: Pseudomonas aeruginosa, ATCC35151, read-out: MIC P. aeruginosa ATCC 35151
[5] = test system: E. coli D22; assay: microbe, parasite or virus in culture; format: cell-based; settings: Escherichia coli, D22, read-out: MIC E. coli D22
[6] = test system: K. pneumoniae 848844; assay: microbe, parasite or virus in culture; format: cell-based; settings: Klebsiella pneumoniae, 848844, read-out: MIC K. pneumoniae 848844
[7] = test system: E. coli AG100A; assay: Broth microdilution MIC in CAMHB; format: cell-based; settings: Escherichia coli, read-out: MIC E. coli AG100A
[8] = test system: N. gonorrhoeae WHO L; assay: Liquid broth MIC in Fastidious broth; settings: Neisseria gonorrhoeae, read-out: Minimum Inhibitory Concentration (MIC), N. gonorrhoeae WHO L
[9] = test system: K. pneumoniae UMM; assay: microbe, parasite or virus in culture; format: cell-based; settings: Klebsiella pneumoniae, read-out: MIC K. pneumoniae UMM
[10] = test system: N. gonorrhoeae MS11; assay: Liquid broth MIC in Fastidious broth; settings: Neisseria gonorrhoeae, MS11, read-out: Minimum Inhibitory Concentration (MIC), N. gonorrhoeae MS11
Procedure: Additional antibacterial testing of the series was performed in 8 reference strains of N. gonorrhoeae (ATCC 49226, FA1090, MS 11, WHO G, WHO L, WHO M, WHO K, WHO X, WHO Z, WHO Q, CDC-0197). ATCC 49226, FA1090, MS11, WHO G, WHO L, and WHO M produce wild type or wild-type like PBP2. WHO K, WHO X, WHO Z, WHO Q, and CDC-0197 produce mosaic PBP2. Liquid broth-based assays were used for antibacterial testing of PBP inhibitors in Neisseria gonorrhoeae. Briefly, cryo-preserved bacterial cultures of clinical strains were streaked for isolation on Chocolate Agar (72 g/L (2×) GC Agar Base (BD #228950) and 2% (2×) Hemoglobin was autoclaved at 121° C. for 20 minutes to sterilize. Once cooled to ˜50° C. the 2×GC Agar Base and 2× Hemoglobin solutions are combined and 1% IsoVitaleX Enrichment (BD #211876) was added to the solution). Strains were incubated at 36° C. and 5% CO2 to allow growth of colonies, 24 hours before inoculum preparation. 2-fold serial dilutions of test compounds were conducted in a 96 well plate with a final volume of 75 μL per well at 2-fold the final desired concentration in Fastidious broth (Remel #R07664). For preparation of assay inoculum, a direct suspension was prepared by aseptically swabbing 10-15 colonies from agar plates into culture tubes containing 2 mL of fresh sterile saline. After the dilution plates were set up, direct suspensions were then diluted in a cuvette containing sterile saline and the optical density was measured at 600 nm. Inocula were diluted such that 75 μL of this culture in Fastidious broth results in a starting bacterial concentration of 5×10^5 CFU/mL when added to the dilution plates. The plates were incubated for ˜24 hours at 36° C. and 5% CO2.

[11] = target: T1, PBP3 from Escherichia coli (K-12) (Escherichia coli, UniProt P0AD68); assay: Bocillin-FL fluorescence polarization competition binding, E. coli PBP3
T1 construct: made in house
Source text: To determine the ability of boronic acid-based test PBP inhibitors to bind Penicillin Binding Proteins (PBPs), Bocillin-FL (fluorescently-labeled penicillin V; ThermoFisher Scientific) was used in a fluorescence polarization (FP) competition binding assay to assess inhibitor binding to PBP3 from Escherichia coli (K-12), PBP3 from Pseudomonas aeruginosa (PAO1), PBP1a and PBP3 from Acinetobacter baumannii (ATCC 19606), and PBP2 from Neisseria gonorrhoeae (FA19). PBPs were cloned and purified as described previously (E. coli PBP3, King, D. T, et al., ACS Infectious Diseases 2015, 1, 175-184; P. aeruginosa PBP3, Han et. al., PNAS 2010, 107 (51), 22002-22007; A. baumannii PBPs, Penwell et. al., Antimicrob. Agents Chemother. 2015, 59 (3), 1680-1689; N. gonorrhoeae PBP2, Singh et. al., J. Biol. Chem. 2019, 294 (38), 14020-14032). To establish assay conditions for competition binding, enzyme titration/saturation binding experiments were initially performed. Bocillin-FL was prepared at 0.2 μM in a buffer comprised of 50 mM Hepes (pH 8.0), 300 mM NaCl and 10% (v/v) glycerol for reactions with E. coli, P. aeruginosa and N. gonorrhoeae PBPs, and 25 mM Tris (pH 8.0), 200 mM NaCl, 10% (v/v) glycerol and 0.005% (v/v) Tween 20 for reactions with A. baumannii PBPs. Saturation binding was performed by mixing 40 μl of PBP solutions ranging in concentrations from 0-24 μM with 40 μl of the 0.2 μM Bocillin-FL solution, in individual wells of a black 384-well microplate. FP was measured immediately upon mixing (Excitation, 490 nm; Emission, 520 nm; g-factor, 0.96), using a Cytation3 (BioTek) microplate reader and measured continuously for up to 120 minutes. The FP response stabilized after 15 minutes for P. aeruginosa and A. baumannii PBP3, 30 minutes for E. coli PBP3 and A. baumannii PBP1a, and less than 1 minute for N. gonorrhoeae PBP2. […] The competition binding assay (80 μl final volume) was validated using beta-lactams and PBPs at final concentrations of: 1.5 μM for E. coli PBP3; 0.75 μM for P. aeruginosa PBP3; 1 μM for A. baumannii PBP1a; 0.2 μM for A. baumannii PBP3; and 0.25 μM for N. gonorrhoeae PBP2. Bocillin-FL was at 0.1 μM (0.05 μM with A. baumannii PBP1a) and beta-lactam concentrations ranged from 0-1,000 μM. E. coli PBP3 was incubated with increasing concentrations of ampicillin in a black 384-well microplate (Corning) for 30 minutes. P. aeruginosa PBP3 was incubated for 15 minutes with aztreonam, whereas A. baumannii PBP1a and PBP3 were incubated for 15 minutes with meropenem, and then Bocillin-FL was added followed immediately by the FP measurement for up to 60 minutes. […] The beta-lactam potency was reported as the concentration of beta-lactam required to reduce the amount of PBP bound-Bocillin-FL by 50% (EC50). […] The EC50 of aztreonam was determined to be <0.5 μM for P. aeruginosa PBP3. […] Binding assays for boronic acid PBP inhibitors were performed in an identical fashion for the respective PBPs.

[12] = test system: E. coli 901C; assay: microbe, parasite or virus in culture; format: cell-based; settings: Escherichia coli, read-out: MIC E. coli 901C
[13] = test system: E. coli AG100; assay: microbe, parasite or virus in culture; format: cell-based; settings: Escherichia coli, AG100, read-out: MIC E. coli AG100
[14] = test system: N. gonorrhoeae ATCC 49226; assay: Liquid broth MIC in Fastidious broth; settings: Neisseria gonorrhoeae, ATCC49226, read-out: Minimum Inhibitory Concentration (MIC), N. gonorrhoeae ATCC 49226

T1 sequence (P0AD68 1-577): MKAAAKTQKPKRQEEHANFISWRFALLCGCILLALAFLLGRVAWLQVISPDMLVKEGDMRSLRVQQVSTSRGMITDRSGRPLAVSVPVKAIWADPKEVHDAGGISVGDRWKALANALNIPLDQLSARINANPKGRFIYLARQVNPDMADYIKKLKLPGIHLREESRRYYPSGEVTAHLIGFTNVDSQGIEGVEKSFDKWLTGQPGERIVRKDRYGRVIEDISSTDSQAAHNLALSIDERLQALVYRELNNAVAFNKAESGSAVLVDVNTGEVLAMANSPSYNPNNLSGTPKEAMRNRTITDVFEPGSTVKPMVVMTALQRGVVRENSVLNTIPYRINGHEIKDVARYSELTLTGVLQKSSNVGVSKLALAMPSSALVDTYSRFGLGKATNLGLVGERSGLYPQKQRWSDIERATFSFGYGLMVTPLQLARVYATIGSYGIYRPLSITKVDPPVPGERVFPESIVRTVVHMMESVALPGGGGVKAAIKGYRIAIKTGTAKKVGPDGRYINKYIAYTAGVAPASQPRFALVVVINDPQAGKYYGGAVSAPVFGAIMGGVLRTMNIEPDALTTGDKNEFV

| SMILES | MIC [1] [µg/mL] | MIC [2] [µg/mL] | MIC [3] [µg/mL] | MIC [4] [µg/mL] | MIC [5] [µg/mL] | MIC [6] [µg/mL] | MIC [7] [µg/mL] | MIC [8] [µg/mL] | MIC [9] [µg/mL] | MIC [10] [µg/mL] | EC50 [11] [µM] | MIC [12] [µg/mL] | MIC [13] [µg/mL] | MIC [14] [µg/mL] |
| --- | --- | --- | --- | --- | --- | --- | --- | --- | --- | --- | --- | --- | --- | --- |
| O=C(O)c1cccc2c1OB(O)[C@@H](NC(=O)C(NC(=O)N1CCCNC1=O)c1ccc(P(=O)(O)O)cc1)C2 (stereo partly drawn) [Example 56, (3R)-2-hydroxy-3-(2-(2-oxohexahydropyrimidine-1-carboxamido)-2-(4-phosphonophenyl)acetamido)-3,4-dihydro-2H-benzo[e][1,2]oxaborinine-8-carboxylic acid] | 16 to 32 (≈ 29.3 to 58.6 µM) | < 1 | 1 to 2 (≈ 1.83 to 3.66 µM) | < 1 | 8 to 16 (≈ 14.6 to 29.3 µM) | > 128 | 32 to 64 (≈ 58.6 to 117 µM) | 16 to 32 (≈ 29.3 to 58.6 µM) | > 128 | 1 to 2 (≈ 1.83 to 3.66 µM) | 10 to 50 | 2 to 4 (≈ 3.66 to 7.32 µM) | > 128 | 1 to 2 (≈ 1.83 to 3.66 µM) |
| O=C(O)c1cccc2c1OB(O)[C@@H](NC(=O)[C@H](NC(=O)c1cccn(C(F)F)c1=O)c1ccc(P(=O)(O)O)cc1)C2 (single isomer, unassigned) [Example 191] | 16 to 32 (≈ 27.1 to 54.1 µM) | < 1 | < 1 | < 1 | 8 to 16 (≈ 13.5 to 27.1 µM) | > 128 | 32 to 64 (≈ 54.1 to 108 µM) | 4 to 8 (≈ 6.77 to 13.5 µM) | > 128 | 1 to 2 (≈ 1.69 to 3.38 µM) | < 10 | < 1 | > 128 | 1 to 2 (≈ 1.69 to 3.38 µM) |
| CCN1CCN(C(=O)N[C@@H](C(=O)N[C@H]2Cc3ccc(F)c(C(=O)O)c3OB2O)c2ccc(P(=O)(O)O)cc2)C(=O)C1=O (single isomer, unassigned) [Example 10] | < 1 | < 1 | < 1 | < 1 | 8 to 16 (≈ 13.2 to 26.4 µM) | > 128 | 32 to 64 (≈ 52.8 to 106 µM) | < 1 | > 128 | < 1 | < 10 | < 1 | > 128 | < 1 |
| O=C(O)c1cccc2c1OB(O)[C@@H](NC(=O)C(NC(=O)N1CCN(Cc3ccc(O)c(O)c3Cl)C(=O)C1=O)c1ccc(P(=O)(O)O)cc1)C2 (stereo partly drawn) [Example 24, (3R)-3-(2-(4-(2-chloro-3,4-dihydroxybenzyl)-2,3-dioxopiperazine-1-carboxamido)-2-(4-phosphonophenyl)acetamido)-2-hydroxy-3,4-dihydro-2H-benzo[e][1,2]oxaborinine-8-carboxylic acid] | 16 to 32 (≈ 22.3 to 44.6 µM) | < 1 | < 1 | – | – | – | – | 4 to 8 (≈ 5.58 to 11.2 µM) | – | < 1 | < 10 | – | – | < 1 |
| O=C(O)c1c(F)ccc2c1OB(O)[C@@H](NC(=O)C(NC(=O)N1CCN(Cc3ccc(O)c(O)c3Cl)C1=O)c1ccc(P(=O)(O)O)cc1)C2 (stereo partly drawn) [Example 46, (3R)-3-(2-(3-(2-chloro-3,4-dihydroxybenzyl)-2-oxoimidazolidine-1-carboxamido)-2-(4-phosphonophenyl)acetamido)-7-fluoro-2-hydroxy-3,4-dihydro-2H-benzo[e][1,2]oxaborinine-8-carboxylic acid] | 1 to 2 (≈ 1.41 to 2.83 µM) | < 1 | < 1 | – | – | – | – | 4 to 8 (≈ 5.66 to 11.3 µM) | – | < 1 | < 10 | – | – | < 1 |
| O=C(NCCN1CCN(C(=O)NC(C(=O)N[C@H]2Cc3ccc(F)c(C(=O)O)c3OB2O)c2ccc(P(=O)(O)O)cc2)C(=O)C1=O)c1ccc(O)c(O)c1Cl (stereo partly drawn) [Example 120, (3R)-3-(2-(4-(2-(2-chloro-3,4-dihydroxybenzamido)ethyl)-2,3-dioxopiperazine-1-carboxamido)-2-(4-phosphonophenyl)acetamido)-7-fluoro-2-hydroxy-3,4-dihydro-2H-benzo[e][1,2]oxaborinine-8-carboxylic acid] | – | – | – | – | – | – | – | – | – | – | < 10 | – | – | – |
| O=C(N[C@@H](C(=O)N[C@H]1Cc2cccc(C(=O)O)c2OB1O)c1ccc(P(=O)(O)O)cc1)c1ccc(O)c(O)c1Cl [Example 49, (R)-3-((R)-2-(2-chloro-3,4-dihydroxybenzamido)-2-(4-phosphonophenyl)acetamido)-2-hydroxy-3,4-dihydro-2H-benzo[e][1,2]oxaborinine-8-carboxylic acid] | – | – | – | – | – | – | – | – | – | – | > 250 | – | – | – |
| O=C(O)c1c(F)ccc2c1OB(O)[C@@H](NC(=O)C(NC(=O)N1CCN(Cc3ccc(O)c(O)c3Cl)C(=O)C1=O)c1ccc(P(=O)(O)O)c(F)c1)C2 (stereo partly drawn) [Example 23, (3R)-3-(2-(4-(2-chloro-3,4-dihydroxybenzyl)-2,3-dioxopiperazine-1-carboxamido)-2-(3-fluoro-4-phosphonophenyl)acetamido)-7-fluoro-2-hydroxy-3,4-dihydro-2H-benzo[e][1,2]oxaborinine-8-carboxylic acid] | 1 to 2 (≈ 1.33 to 2.66 µM) | < 1 | < 1 | – | – | – | – | 4 to 8 (≈ 5.31 to 10.6 µM) | – | < 1 | < 10 | – | – | < 1 |
| O=C(O)c1c(F)ccc2c1OB(O)[C@@H](NC(=O)C(NC(=O)N1CCN(Cc3cc(F)c(O)c(O)c3Cl)C(=O)C1=O)c1ccc(P(=O)(O)O)cc1)C2 (stereo partly drawn) [Example 45, (3R)-3-(2-(4-(2-chloro-5-fluoro-3,4-dihydroxybenzyl)-2,3-dioxopiperazine-1-carboxamido)-2-(4-phosphonophenyl)acetamido)-7-fluoro-2-hydroxy-3,4-dihydro-2H-benzo[e][1,2]oxaborinine-8-carboxylic acid] | 4 to 8 (≈ 5.31 to 10.6 µM) | < 1 | < 1 | – | – | – | – | 4 to 8 (≈ 5.31 to 10.6 µM) | – | < 1 | < 10 | – | – | < 1 |
| O=C(O)c1c(F)ccc2c1OB(O)[C@@H](NC(=O)C(NC(=O)N1CCN(Cc3ccc(O)c(O)c3Cl)C(=O)C1=O)c1ccc(P(=O)(O)O)cc1)C2 (stereo partly drawn) [Example 8, (3R)-3-(2-(4-(2-chloro-3,4-dihydroxybenzyl)-2,3-dioxopiperazine-1-carboxamido)-2-(4-phosphonophenyl)acetamido)-7-fluoro-2-hydroxy-3,4-dihydro-2H-benzo[e][1,2]oxaborinine-8-carboxylic acid] | 4 to 8 (≈ 5.44 to 10.9 µM) | < 1 | < 1 | < 1 | < 1 | > 128 | < 1 | 4 to 8 (≈ 5.44 to 10.9 µM) | 2 to 4 (≈ 2.72 to 5.44 µM) | < 1 | < 10 | < 1 | – | < 1 |
